Data reported in US9340493B2, “Hydroxamic acid derivatives useful as antibacterial agents” (Pfizer Inc., priority 2008, dated 2016).
Converted amounts (≈) assume the structure as drawn.

Key:
[1] = system: Acinetobacter baumanii/haemolyticus; experiment: MIC determination, A. baumanii/haemolyticus; type: cell-based; conditions: Acinetobacter baumannii; multidrug-resistant clinical isolate; * = arithmetic mean of 2-6 MIC determinations; read-out: MIC (ug/mL) A. baumanii/haemolyticus
Experimental: (§1) MIC determinations: The in vitro antibacterial activity of compounds described in the Examples was evaluated by minimum inhibitory concentration (MIC) testing according to Clinical and Laboratory Standards Institute (CLSI, formerly NCCLS) guidelines. See: Clinical and Laboratory Standards Institute. Methods for Dilution Antimicrobial Susceptibility Tests for Bacteria that Grow Aerobically; Approved Standard-Seventh Edition. CLSI document M7-A7 [ISBN 1-56238-587-9]. Clinical and Laboratory Standards Institute, 940 West Valley Road, Suite 1400, Wayne, Pa. 19087-1898 USA, 2006; also Clinical and Laboratory Standards Institute. Performance Standards for Antimicrobial Susceptibility Testing; Eighteenth Informational Supplement. CLSI document M100-S18 [ISBN1-56238-653-0]. Clinical and Laboratory Standards Institute.
(§2) The following bacterial strains were used:
Acinetobacter baumanii/haemolyticus: Multidrug-resistant clinical isolate;

Escherichia coli EC-1 = experiment: MIC determination, E. coli EC-1; type: cell-based; conditions: EC1, EC-1: VOGEL, * = arithmetic mean of 2-6 MIC determinations, read-out: MIC (ug/mL) E. coli EC-1
Experimental: as §1, §2
Escherichia coli EC-1: VOGEL;

Klebsiella pneumoniae = experiment: MIC determination, K. pneumoniae; type: cell-based; conditions: ciprofloxacin-resistant, ESBL-expressing clinical isolate, * = arithmetic mean of 2-6 MIC determinations, read-out: MIC (ug/mL) K. pneumoniae
Experimental: as §1, §2
Klebsiella pneumoniae: Ciprofloxacin-resistant isolate, expresses extended-spectrum beta-lactamases (ESBL), clinical isolate;

P. aeruginosa PAO280 = experiment: MIC determination, P. aeruginosa PAO280; type: cell-based; conditions: Pseudomonas aeruginosa, PAO280, read-out: MIC (ug/mL) P. aeruginosa PAO280
Experimental: as §1, §2
Pseudomonas aeruginosa PA0280: lacks efflux pumps MexAB-oprM, MexXY and MexZ

[2] = biological target: T1, Pseudomonas aeruginosa LpxC enzyme (Pseudomonas aeruginosa, UniProt P47205); experiment: IC50 assay, LpxC enzyme from P. aeruginosa; type: biochemical; conditions: 0.5 nM enzyme, 25° C., pH 8.0, 20 min; ** = average of 2-8 assays
T1 construct: made in house; host or cells: E. coli
T1 sequence (P47205 1-303): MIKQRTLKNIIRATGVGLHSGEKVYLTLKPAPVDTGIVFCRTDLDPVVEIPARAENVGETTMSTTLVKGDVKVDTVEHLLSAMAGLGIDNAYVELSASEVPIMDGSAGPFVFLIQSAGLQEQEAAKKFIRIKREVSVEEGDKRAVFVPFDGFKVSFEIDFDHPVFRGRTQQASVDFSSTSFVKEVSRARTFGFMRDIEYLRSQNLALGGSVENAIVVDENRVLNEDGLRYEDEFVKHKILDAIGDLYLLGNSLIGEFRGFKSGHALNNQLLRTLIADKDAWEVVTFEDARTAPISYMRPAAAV
Experimental: IC50 assay, LpxC enzyme from P. aeruginosa: IC50 determination in the LpxC enzyme assay was carried out in a similar manner to that described by S. A. Hyland et al., J. Bacteriology 1997, 179, 2029-2037. [See also T. Kline et al., J. Medicinal Chemistry 2002, 45, 3112-3129.] Briefly, Pseudomonas aeruginosa LpxC enzyme (0.5 nM) purified from E. coli-overexpressing bacteria was incubated at 25° C. in a final volume of 25 ul containing 0.5 uM UDP-3-O—(R-3-hydroxydecanoyl)-N—[^3H-acetyl]glucosamine (B. D. Maxwell and J. C. Bronstein, J. Labeled Compounds and Radiopharmaceuticals 2005, 48, 1049-1054), 1 mg/ml BSA, and 50 mM sodium phosphate buffer, pH 8.0 in the presence and absence of inhibitor compound. At the end of 20 min, 90 ul of a pre-mixed 3% suspension of activated charcoal in 100 mM sodium acetate, pH 7.5, was added to stop the enzyme reaction. The contents of the well were transferred to a filter plate and filtered, and an aliquot of the filtrate was quantitated by liquid scintillation spectrometry. A no-enzyme control was subtracted in order to eliminate background counts.

Enterobacter aerogenes = experiment: MIC determination, E. aerogenes; type: cell-based; conditions: Klebsiella aerogenes; quinolone-resistant, ESBL-expressing clinical isolate; * = arithmetic mean of 2-6 MIC determinations; read-out: MIC (ug/mL) E. aerogenes
Experimental: as §1, §2
Enterobacter aerogenes: Quinolone-resistant isolate, expresses extended-spectrum beta-lactamases (ESBL), clinical isolate;

[3] = system: Staphylococcus aureus ATCC 29213; experiment: MIC determination, S. aureus ATCC 29213; type: cell-based; conditions: ATCC29213, CLSI quality control reference strain, * = arithmetic mean of 2-6 MIC determinations, read-out: MIC (ug/mL) S. aureus ATCC 29213
Experimental: as §1, §2
Staphylococcus aureus ATCC 29213: CLSI quality control reference strain; and […]

P. aeruginosa UI-18 = experiment: MIC determination, P. aeruginosa UI-18; type: cell-based; conditions: Pseudomonas aeruginosa, UI18; wild-type; * = arithmetic mean of 2-6 MIC determinations; read-out: MIC (ug/mL) P. aeruginosa UI-18
Experimental: as §1, §2
P. aeruginosa UI-18: Wild-type;

SMILES	MIC [1] [µg/mL]	MIC (Escherichia coli EC-1) [µg/mL]	MIC (Klebsiella pneumoniae) [µg/mL]	MIC (P. aeruginosa PAO280) [µg/mL]	IC50 [2] [µM]	MIC (Enterobacter aerogenes) [µg/mL]	MIC [3] [µg/mL]	MIC (P. aeruginosa UI-18) [µg/mL]
C[C@@](OCc1ccc(-c2ccccc2)cc1)(C(=O)NO)[C@@H](O)c1ccoc1 [Example 22, (2S,3S)-2-(biphenyl-4-ylmethoxy)-3-(3-furyl)-N,3-dihydroxy-2-methylpropanamide]	> 8	> 8	> 8	4 (≈ 10.9 µM)	0.0105	> 8	> 8	> 8
C[C@@](OCc1ccc(-c2ccc(F)cc2)cc1)(C(=O)NO)[C@@H](O)c1cc(CO)on1 [Example 35, (2S,3S)-2-[(4′-fluorobiphenyl-4-yl)methoxy]-N,3-dihydroxy-3-[5-(hydroxymethyl)isoxazol-3-yl]-2-methylpropanamide]	64 (≈ 154 µM)	23 (≈ 55.2 µM)	53 (≈ 127 µM)	0.03 (≈ 0.072 µM)	0.000695	> 64	> 64	1 (≈ 2.4 µM)
Cc1ccc(-c2ccc(CO[C@](C)(C(=O)NO)[C@@H](O)c3cc(CO)on3)cc2)nc1 [Example 40, (2S,3S)-N,3-dihydroxy-3-[5-(hydroxymethyl)isoxazol-3-yl]-2-methyl-2-{[4-(5-methylpyridin-2-yl)benzyl]oxy}propanamide]	> 64	> 64	> 64	0.125 (≈ 0.302 µM)	0.00081	> 64	> 64	16 (≈ 38.7 µM)
CC(OCc1ccc(-c2ccccc2)cc1)(C(=O)NO)C(=O)NCc1nnn[nH]1 (stereo not drawn) [Example 57, 2-(biphenyl-4-ylmethoxy)-N-hydroxy-2-methyl-N′-(1H-tetrazol-5-ylmethyl)malonamide]	> 64	> 64	> 64	4 (≈ 10.1 µM)	0.00134	> 64	> 64	> 64
C[C@@](OCc1ccc(-c2ccccc2)cc1)(C(=O)NO)[C@@H](O)c1ccon1 [Example 31, (2S,3S)-2-(biphenyl-4-ylmethoxy)-N,3-dihydroxy-3-isoxazol-3-yl-2-methylpropanamide]	32 (≈ 86.9 µM)	16 (≈ 43.4 µM)	48 (≈ 130 µM)	0.06 (≈ 0.163 µM)	0.000406	> 64	> 64	6 (≈ 16.3 µM)
CC(OCc1ccc(-c2ccccc2)cc1)(C(=O)NO)C(=O)NCc1ccncn1 (stereo not drawn) [Example 71, 2-(biphenyl-4-ylmethoxy)-N-hydroxy-2-methyl-N′-(pyrimidin-4-ylmethyl)malonamide]	> 64	32 (≈ 78.7 µM)	> 64	0.125 (≈ 0.308 µM)	0.00394	> 64	> 64	16 (≈ 39.4 µM)
CNC(=O)C(C)(OCc1ccc(-c2ccc(-c3cc(CO)no3)cc2)cc1)C(=O)NO (stereo not drawn) [Example 49, N-hydroxy-2-({4′-[3-(hydroxymethyl)isoxazol-5-yl]biphenyl-4-yl}methoxy)-N′,2-dimethylmalonamide]	> 16	8 (≈ 18.8 µM)	> 16	0.045 (≈ 0.106 µM)	0.00175	> 16	> 16	2 (≈ 4.7 µM)
C[C@@](OCc1ccc(-c2ccccc2)cc1)(C(=O)NO)[C@@H](O)c1ncco1 [Example 33, (2S,3R)-2-(biphenyl-4-ylmethoxy)-N,3-dihydroxy-2-methyl-3-(1,3-oxazol-2-yl)propanamide]	> 64	64 (≈ 174 µM)	> 64	0.25 (≈ 0.679 µM)	0.00323	> 64	> 64	8 (≈ 21.7 µM)
C[C@@](OCc1ccc(-c2ccccc2)cc1)(C(=O)NO)[C@@H](O)c1ccn[nH]1 [Example 45, (2S,3S)-2-(biphenyl-4-ylmethoxy)-N,3-dihydroxy-2-methyl-3-(1H-pyrazol-3-yl)propanamide]	> 32	> 32	> 32	0.25 (≈ 0.68 µM)	0.00195	> 32	> 32	16 (≈ 43.5 µM)
CCCc1ccc(-c2ccc(COC(CO)(CO)C(=O)NO)cc2)cc1 [Example 51, N,3-dihydroxy-2-(hydroxymethyl)-2-[(4′-propylbiphenyl-4-yl)methoxy]propanamide]	> 16	> 16	> 16	1 (≈ 2.78 µM)	0.00186	> 16	> 16	> 16
C[C@@](OCc1ccc(-c2ccccc2)cc1)(C(=O)NO)[C@@H](O)c1cc(S(C)(=O)=O)on1 [Example 43, (2S,3S)-2-(biphenyl-4-ylmethoxy)-N,3-dihydroxy-2-methyl-3-[5-(methylsulfonyl)isoxazol-3-yl]propanamide]	64 (≈ 143 µM)	4 (≈ 8.96 µM)	16 (≈ 35.8 µM)	0.03 (≈ 0.0672 µM)	0.000686	64 (≈ 143 µM)	64 (≈ 143 µM)	2 (≈ 4.48 µM)
CCCc1ccc(-c2ccc(CO[C@](C)(C(=O)NO)[C@@H](O)c3cc(C)on3)cc2)cc1 [Example 30, (2S,3S)-N,3-dihydroxy-2-methyl-3-(5-methylisoxazol-3-yl)-2-[(4′-propylbiphenyl-4-yl)methoxy]propanamide]	2 (≈ 4.71 µM)	2 (≈ 4.71 µM)	4 (≈ 9.42 µM)	1 (≈ 2.36 µM)	0.000762	16 (≈ 37.7 µM)	32 (≈ 75.4 µM)	4 (≈ 9.42 µM)
C[C@@](OCc1ccc(-c2ccccc2)cc1)(C(=O)NO)[C@@H](O)c1ccno1 [Example 16, (2S,3R)-2-(biphenyl-4-ylmethoxy)-N,3-dihydroxy-3-isoxazol-5-yl-2-methylpropanamide]	> 64	64 (≈ 174 µM)	> 64	0.125 (≈ 0.339 µM)	0.00079	> 64	> 64	8 (≈ 21.7 µM)
CC(CO)(OCc1ccc(-c2ccc(Cl)cc2)cc1)C(=O)NO (stereo not drawn) [Example 62, 2-[(4′-chlorobiphenyl-4-yl)methoxy]-N,3-dihydroxy-2-methylpropanamide]	> 32	> 32	> 32	1 (≈ 2.98 µM)	0.00417	> 32	> 32	32 (≈ 95.3 µM)
C[C@@](OCc1ccc(-c2ccccc2)cc1)(C(=O)NO)[C@@H](O)c1ccc(CO)o1 [Example 14, (2S,3S)-2-(biphenyl-4-ylmethoxy)-N,3-dihydroxy-3-[5-(hydroxymethyl)-2-furyl]-2-methylpropanamide]	> 64	> 64	> 64	0.5 (≈ 1.26 µM)	0.000582	> 64	> 64	16 (≈ 40.3 µM)
